The source made the active and inactive calls.
Key:
[1] = biological target: T1, Low molecular weight phosphotyrosine protein phosphatase (Homo sapiens, UniProt P24666); format: functional; conditions: read-out: IC50_Mean
[2] = biological target: T1, Low molecular weight phosphotyrosine protein phosphatase; format: functional; conditions: read-out: IC50_Mean; remark: listed apart in the source
[3] = HEp-2 cell cytotoxicity, dose response, cytotoxicity control for RSV inhibitor project, HTS (AID 2410); format: functional; conditions: human respiratory syncytial virus
[4] = biological target: T2, Nuclear receptor subfamily 0 group B member 1 (Homo sapiens, UniProt P51843); format: functional, cell-based
T2 sequence (P51843 whole entry): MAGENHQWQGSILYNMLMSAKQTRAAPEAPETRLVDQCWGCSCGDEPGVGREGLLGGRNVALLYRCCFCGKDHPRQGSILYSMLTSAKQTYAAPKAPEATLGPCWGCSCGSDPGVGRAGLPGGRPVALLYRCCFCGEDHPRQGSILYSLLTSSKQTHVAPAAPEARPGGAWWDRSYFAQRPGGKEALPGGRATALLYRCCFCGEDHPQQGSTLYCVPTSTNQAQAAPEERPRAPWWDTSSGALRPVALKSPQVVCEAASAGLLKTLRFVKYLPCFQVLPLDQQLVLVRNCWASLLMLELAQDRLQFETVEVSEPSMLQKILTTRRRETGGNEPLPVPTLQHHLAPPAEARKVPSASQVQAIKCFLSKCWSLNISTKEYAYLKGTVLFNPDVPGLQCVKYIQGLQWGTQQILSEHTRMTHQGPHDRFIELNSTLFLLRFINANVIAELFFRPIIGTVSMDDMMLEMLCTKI

[5] = biological target: T3, Fatty acid synthase (Homo sapiens, UniProt P49327); assay: FAS thioesterase domain inhibitors, dose response, biochemical, kinetic fluorescence intensity (AID 624326); format: functional;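 also: rate of fluorescence rise from hydrolysis of a fluorogenic O-methyl fluorescein ester substrate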
[6] = biological target: T3, Fatty acid synthase; assay: FAS thioesterase domain inhibitors, dose response, biochemical, endpoint fluorescence intensity, uHTS hits (AID 624327); format: functional;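 also: fluorescence from hydrolysis of an O-methyl fluorescein acyl ester substrate by the enzyme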
[7] = cells; format: functional, cell-based
[8] = biological target: T4, Probable nicotinate-nucleotide adenylyltransferase (Staphylococcus aureus (strain N315), UniProt P65502); format: functional, Staphylococcus aureus subsp. aureus N315;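 as to IC50 Mean: confirmatory dose-response retesting of NadD inhibitor hits first found in an ultra-high-throughput screen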
[9] = biological target: T4, Probable nicotinate-nucleotide adenylyltransferase; format: functional, Staphylococcus aureus subsp. aureus N315; conditions: read-out: IC50_Mean
[10] = biological target: T5, Caspase-6 (Homo sapiens, UniProt P55212); assay: human caspase-6 inhibitors, dose response, biochemical, VEID-R110 fluorescence, cherry-pick (AID 720632)
T5 sequence (P55212 whole entry): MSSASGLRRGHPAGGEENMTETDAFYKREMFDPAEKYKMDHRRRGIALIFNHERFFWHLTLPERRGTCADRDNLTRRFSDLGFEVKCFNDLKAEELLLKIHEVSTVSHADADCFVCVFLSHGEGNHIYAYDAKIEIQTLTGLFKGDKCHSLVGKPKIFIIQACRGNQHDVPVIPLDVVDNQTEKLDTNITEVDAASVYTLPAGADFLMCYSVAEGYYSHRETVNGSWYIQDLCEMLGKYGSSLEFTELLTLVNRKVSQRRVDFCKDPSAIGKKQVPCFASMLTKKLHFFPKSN

[11] = test system: Vero; assay: Vero cell toxicity, dose response, cytotoxicity control, plate reader, cherry-pick samples (AID 687020); format: functional, cell-based; conditions: Chlorocebus sabaeus
[12] = biological target: T6, Beta-lactamase (Pseudomonas aeruginosa, UniProt Q79MP6); assay: […] counterscreen for selective VIM-2 inhibitors: dose response biochemical high throughput screening assay to identify inhibitors of IMP-1 metallo-beta-lactamase.
[13] = biological target: T6, Beta-lactamase; assay: IMP-1 metallo-beta-lactamase inhibitors, dose response, selectivity assay for VIM-2 inhibitor project, biochemical, epi-absorbance (AID 1920)
[14] = biological target: Beta-lactamase (Salmonella choleraesuis (strain SC-B67), UniProt Q5J463); assay: Epi-absorbance-based counterscreen for selective VIM-2 inhibitors: dose response biochemical high throughput screening assay to identify inhibitors of TEM-1 serine-beta-lactamase.
[15] = test system: HEK293; assay: cells; format: functional, cell-based; conditions: Homo sapiens
[16] = HepG2 cell cytotoxicity, dose response, cytotoxicity control, ATP luminescence, cherry-pick, activator set 2 (AID 1053143); format: functional, cell-based
[17] = biological target: T2, Nuclear receptor subfamily 0 group B member 1; assay: Luminescence-based cell-based high throughput dose response assay for inhibitors of the orphan nuclear receptor subfamily 0, group B, member 1 (DAX1; NR0B1). [Related pubchem assays (depositor defined):AID504766, AID504790]; format: functional
[18] = biological target: Nonstructural protein 1 (Influenza A virus, UniProt Q194T2); format: functional, Influenza A virus (A/California/07/2009(H1N1))
[19] = test system: Streptococcus; assay: Group A Streptococcus viability loss, dose response, counter-screen for streptokinase expression inhibitor project, luminescence, BacTiterGlo (AID 1915); format: functional, organism-based;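 also: potency for reduction of bacterial viability or growth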
[20] = test system: Streptococcus sp. 'group A'; assay: growth inhibition of control SK(-) GAS strain, dose response, counter-screen for streptokinase expression inhibitor project, luminescence, kanamycin, BacTiterGlo, confirmation (AID 1900); format: functional, organism-based
[21] = biological target: T7, Streptokinase A (Streptococcus pyogenes serotype M1, UniProt P10520); assay: S. pyogenes streptokinase expression inhibitors, potency, dose response, plasminogen activation absorbance, OD405 (AID 1914); format: functional, Streptococcus pyogenes M1 GAS;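 also: secreted streptokinase activity via plasminogen activation per viability signal from cell pellet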
T7 sequence (P10520 whole entry): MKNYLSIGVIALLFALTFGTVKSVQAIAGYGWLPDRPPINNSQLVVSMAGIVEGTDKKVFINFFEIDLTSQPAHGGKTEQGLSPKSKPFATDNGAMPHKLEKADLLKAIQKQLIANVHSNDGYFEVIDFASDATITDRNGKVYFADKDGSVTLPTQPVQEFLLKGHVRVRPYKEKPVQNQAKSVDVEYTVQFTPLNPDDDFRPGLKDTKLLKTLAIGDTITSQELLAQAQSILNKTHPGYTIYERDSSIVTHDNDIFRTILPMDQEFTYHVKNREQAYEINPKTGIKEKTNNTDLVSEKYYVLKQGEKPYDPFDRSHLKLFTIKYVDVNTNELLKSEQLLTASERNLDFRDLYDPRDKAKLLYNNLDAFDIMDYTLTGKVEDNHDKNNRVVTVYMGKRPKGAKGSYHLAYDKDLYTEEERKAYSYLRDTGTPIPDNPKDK

[22] = biological target: Matrix metalloproteinase-14 (Homo sapiens, UniProt P50281); assay: Dose Response confirmation of uHTS hits for a small molecule inhibitors of MT1-MMP activation in a fluorescence assay set 1.; format: functional
[23] = biological target: T8, Protein disulfide-isomerase (Homo sapiens, UniProt P07237); assay: PDI inhibitors, insulin turbidity readout, dose response, biochemical, absorbance, cherry-picked samples, set 2 (AID 624274); format: functional
[24] = biological target: T8, Protein disulfide-isomerase; assay: PDI inhibitors, insulin aggregation turbidity, dose response, biochemical, absorbance, cherry-picked samples (AID 602350); format: functional
[25] = biological target: 5-hydroxytryptamine receptor 2A (Mus musculus, UniProt P35363); format: functional, cell-based;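 also: CHO-K1 cells with tagged receptor and beta-arrestin; agonist potency measured as compound-induced activation of the receptor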
[26] = biological target: Mu-type opioid receptor (Homo sapiens, UniProt P35372); format: functional, cell-based;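 also: U2OS cells with beta-arrestin recruitment to OPRM1 by beta-gal complementation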
[27] = biological target: Long-chain-fatty-acid--AMP ligase FadD28 (Mycobacterium tuberculosis, UniProt P9WQ59); assay: Fluorescence polarization aasay to screen for inhibitors that compete for the binding of FadD28 to a bisubstrate Measured in Biochemical System Using Plate Reader - 2147-01_Inhibitor_Dose_CherryPick_Activity.; format: functional, Mycobacterium tuberculosis H37Rv
[28] = test system: H9c2; assay: cells; format: functional, cell-based; conditions: Rattus norvegicus, H9c2, Myocardium;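 also: confirmatory concentration-response retest of ultra-high-throughput screening hits for modulation of myocardial damage; cell death induced by hydrogen peroxide oxidative stress; compound pretreatment for 60 min then peroxide exposure for 2 h; potency is for protecting the cells against peroxide damage rather than for killing them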
[29] = biological target: ATP-dependent translocase ABCB1 (Homo sapiens, UniProt P08183); assay: ABCG2 efflux pump inhibitor potency, dose response, Ig-MXP3 cells, JC-1, flow cytometry, set 2 (AID 504566); format: functional; conditions: read-out: EC50_MICROM_;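 also: flow cytometry median green fluorescence of retained JC-1 dye; potency of efflux pump inhibition measured as rising substrate retention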
[30] = StAR promoter reporter inhibition counter-screen, dose response, counter-screen for LRH-1 inverse agonist project, cell-based, luminescence, luciferase reporter (AID 651969); format: functional
[31] = biological target: Steroidogenic factor 1 (Homo sapiens, UniProt Q13285); assay: Counterscreen for inverse agonists of the liver receptor homolog-1 (LRH-1; NR5A2): Luminescence-based cell-based high throughput dose response assay to identify inverse agonists of the Steroidogenic Factor 1 Nuclear Receptor (SF1; NR5A1).; format: functional
[32] = biological target: Nuclear receptor subfamily 5 group A member 2 (Homo sapiens, UniProt O00482); format: functional, cell-based;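 also: HEK293T cells transfected with LRH-1 and a StAR promoter luciferase reporter; potency for inhibitors that lower LRH-1 driven reporter light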
[33] = A Cell-Based Confirmatory Screen for Compounds that Inhibit VEEV, TC-83 (8).; format: functional
[34] = T. cruzi growth inhibition in host cells, dose response, cell-based, plate reader, dry powder, set 2 (AID 652275); format: functional
[35] = AlphaScreen signal interference compounds, dose response, artefact control for ARNT-TACC3 interaction inhibitor project, biochemical, luminescence, cherry-pick (AID 651705); format: functional;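 also: AlphaScreen bead proximity signal that flags compounds interfering with the detection technology; potency reflects signal decrease which marks the compound as an assay artifact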
[36] = biological target: T9, Aminopeptidase N (Plasmodium falciparum FcB1/Columbia, UniProt O96935); assay: P. falciparum M1AAP inhibitors, biochemical, fluorogenic H-Leu-NHMec substrate, 1536-well (AID 1445); design: species or system Plasmodium falciparum 3D7, 3D7
T9 sequence (O96935 whole entry): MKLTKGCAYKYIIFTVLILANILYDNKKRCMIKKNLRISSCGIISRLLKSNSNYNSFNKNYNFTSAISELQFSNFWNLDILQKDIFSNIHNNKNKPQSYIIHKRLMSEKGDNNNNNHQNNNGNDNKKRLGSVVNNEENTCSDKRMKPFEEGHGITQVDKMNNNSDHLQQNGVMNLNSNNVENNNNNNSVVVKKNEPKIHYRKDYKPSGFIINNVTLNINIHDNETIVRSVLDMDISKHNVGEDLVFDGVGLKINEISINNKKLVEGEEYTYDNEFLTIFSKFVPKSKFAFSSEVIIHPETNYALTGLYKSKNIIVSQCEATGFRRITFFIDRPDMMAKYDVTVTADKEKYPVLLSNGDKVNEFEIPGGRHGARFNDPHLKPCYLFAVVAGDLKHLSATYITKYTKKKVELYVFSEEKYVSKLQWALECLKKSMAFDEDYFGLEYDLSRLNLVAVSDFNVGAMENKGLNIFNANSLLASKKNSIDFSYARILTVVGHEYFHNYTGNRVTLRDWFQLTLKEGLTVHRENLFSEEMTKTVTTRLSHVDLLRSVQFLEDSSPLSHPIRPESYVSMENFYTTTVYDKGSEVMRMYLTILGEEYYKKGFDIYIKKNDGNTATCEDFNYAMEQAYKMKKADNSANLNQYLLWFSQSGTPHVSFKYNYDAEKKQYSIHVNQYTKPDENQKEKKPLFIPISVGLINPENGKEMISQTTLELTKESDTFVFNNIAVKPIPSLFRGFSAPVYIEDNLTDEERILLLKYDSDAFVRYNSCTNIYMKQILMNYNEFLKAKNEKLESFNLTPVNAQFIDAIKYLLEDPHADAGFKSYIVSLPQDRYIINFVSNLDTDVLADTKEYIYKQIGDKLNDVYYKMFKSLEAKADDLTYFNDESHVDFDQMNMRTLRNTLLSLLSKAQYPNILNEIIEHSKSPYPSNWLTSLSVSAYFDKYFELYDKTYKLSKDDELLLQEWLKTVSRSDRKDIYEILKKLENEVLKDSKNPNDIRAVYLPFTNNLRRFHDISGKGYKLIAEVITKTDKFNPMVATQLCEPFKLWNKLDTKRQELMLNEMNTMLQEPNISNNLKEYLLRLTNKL

T3 sequence (P49327 whole entry, the tested form may be a part): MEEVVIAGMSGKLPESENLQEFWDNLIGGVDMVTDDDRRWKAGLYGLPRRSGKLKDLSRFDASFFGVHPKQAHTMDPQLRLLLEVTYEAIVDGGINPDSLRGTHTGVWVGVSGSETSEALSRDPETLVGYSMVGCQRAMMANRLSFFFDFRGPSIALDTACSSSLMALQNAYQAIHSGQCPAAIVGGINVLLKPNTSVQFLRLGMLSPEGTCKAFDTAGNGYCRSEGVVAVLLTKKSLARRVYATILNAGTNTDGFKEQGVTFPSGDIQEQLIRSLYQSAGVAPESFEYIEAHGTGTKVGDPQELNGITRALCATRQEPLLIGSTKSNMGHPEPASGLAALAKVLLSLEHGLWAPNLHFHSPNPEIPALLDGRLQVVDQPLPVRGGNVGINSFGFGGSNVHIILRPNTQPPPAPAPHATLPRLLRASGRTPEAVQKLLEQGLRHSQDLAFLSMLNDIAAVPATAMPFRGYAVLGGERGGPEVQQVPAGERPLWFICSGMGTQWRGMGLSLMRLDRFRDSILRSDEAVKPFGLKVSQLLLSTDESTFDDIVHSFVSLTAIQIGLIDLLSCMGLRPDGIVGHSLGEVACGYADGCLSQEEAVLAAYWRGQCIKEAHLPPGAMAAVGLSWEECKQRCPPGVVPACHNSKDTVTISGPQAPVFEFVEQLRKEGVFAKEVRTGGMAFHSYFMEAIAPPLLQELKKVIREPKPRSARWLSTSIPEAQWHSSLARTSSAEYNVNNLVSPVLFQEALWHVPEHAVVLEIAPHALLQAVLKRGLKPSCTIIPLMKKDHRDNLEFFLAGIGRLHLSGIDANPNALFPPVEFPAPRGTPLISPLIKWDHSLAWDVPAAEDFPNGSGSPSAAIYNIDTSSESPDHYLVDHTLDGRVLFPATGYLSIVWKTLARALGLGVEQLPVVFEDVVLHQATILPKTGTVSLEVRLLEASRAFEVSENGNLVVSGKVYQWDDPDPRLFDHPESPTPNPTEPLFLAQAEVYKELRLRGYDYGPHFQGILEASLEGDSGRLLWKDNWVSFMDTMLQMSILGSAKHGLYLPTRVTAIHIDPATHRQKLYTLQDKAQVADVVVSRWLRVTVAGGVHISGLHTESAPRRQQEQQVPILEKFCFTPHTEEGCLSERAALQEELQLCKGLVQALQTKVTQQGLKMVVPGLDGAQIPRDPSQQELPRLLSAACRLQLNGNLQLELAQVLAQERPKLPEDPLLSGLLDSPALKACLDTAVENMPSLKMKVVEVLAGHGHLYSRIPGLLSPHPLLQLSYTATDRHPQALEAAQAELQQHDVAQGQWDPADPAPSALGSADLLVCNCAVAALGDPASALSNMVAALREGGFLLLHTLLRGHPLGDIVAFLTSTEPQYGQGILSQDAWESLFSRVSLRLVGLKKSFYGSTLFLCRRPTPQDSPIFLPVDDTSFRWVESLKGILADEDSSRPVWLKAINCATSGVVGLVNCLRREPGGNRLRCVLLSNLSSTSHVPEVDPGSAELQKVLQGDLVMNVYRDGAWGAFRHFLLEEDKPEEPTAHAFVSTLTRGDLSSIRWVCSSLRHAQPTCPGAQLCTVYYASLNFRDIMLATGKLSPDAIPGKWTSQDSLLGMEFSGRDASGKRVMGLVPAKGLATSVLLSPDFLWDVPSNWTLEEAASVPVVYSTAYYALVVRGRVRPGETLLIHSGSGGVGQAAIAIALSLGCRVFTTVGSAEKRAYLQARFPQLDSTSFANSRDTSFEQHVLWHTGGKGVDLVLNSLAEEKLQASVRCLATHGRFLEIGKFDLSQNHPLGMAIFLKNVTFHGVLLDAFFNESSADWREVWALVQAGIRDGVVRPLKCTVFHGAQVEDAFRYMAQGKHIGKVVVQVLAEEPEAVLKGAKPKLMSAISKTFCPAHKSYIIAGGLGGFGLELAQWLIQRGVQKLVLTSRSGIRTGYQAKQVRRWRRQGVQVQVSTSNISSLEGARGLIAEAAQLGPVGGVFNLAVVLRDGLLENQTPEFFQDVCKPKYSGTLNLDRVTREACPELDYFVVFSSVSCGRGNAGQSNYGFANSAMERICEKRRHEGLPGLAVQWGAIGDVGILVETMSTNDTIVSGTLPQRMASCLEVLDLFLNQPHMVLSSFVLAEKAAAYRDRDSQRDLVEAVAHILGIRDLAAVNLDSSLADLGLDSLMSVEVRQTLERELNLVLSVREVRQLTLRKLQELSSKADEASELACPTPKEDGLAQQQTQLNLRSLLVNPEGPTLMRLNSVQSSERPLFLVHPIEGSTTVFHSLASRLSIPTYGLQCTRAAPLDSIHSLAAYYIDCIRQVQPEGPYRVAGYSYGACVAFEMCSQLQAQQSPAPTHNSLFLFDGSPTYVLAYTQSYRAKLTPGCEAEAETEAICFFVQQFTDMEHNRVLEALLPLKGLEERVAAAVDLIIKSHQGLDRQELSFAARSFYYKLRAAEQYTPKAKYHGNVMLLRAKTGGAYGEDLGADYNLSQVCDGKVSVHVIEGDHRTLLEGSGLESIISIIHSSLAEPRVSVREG
T1 sequence (P24666 whole entry): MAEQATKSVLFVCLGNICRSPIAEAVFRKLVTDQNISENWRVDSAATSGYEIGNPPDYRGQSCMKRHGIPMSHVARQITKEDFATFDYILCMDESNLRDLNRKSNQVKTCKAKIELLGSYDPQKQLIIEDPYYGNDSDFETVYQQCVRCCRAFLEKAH
T6 sequence (Q79MP6 whole entry): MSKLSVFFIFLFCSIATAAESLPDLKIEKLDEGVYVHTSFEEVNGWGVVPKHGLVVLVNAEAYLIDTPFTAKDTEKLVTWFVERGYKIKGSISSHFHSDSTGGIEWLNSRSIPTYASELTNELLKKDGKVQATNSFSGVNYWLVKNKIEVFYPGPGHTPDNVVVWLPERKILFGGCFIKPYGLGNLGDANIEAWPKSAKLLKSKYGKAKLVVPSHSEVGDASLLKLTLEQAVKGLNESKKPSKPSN
T8 sequence (P07237 whole entry): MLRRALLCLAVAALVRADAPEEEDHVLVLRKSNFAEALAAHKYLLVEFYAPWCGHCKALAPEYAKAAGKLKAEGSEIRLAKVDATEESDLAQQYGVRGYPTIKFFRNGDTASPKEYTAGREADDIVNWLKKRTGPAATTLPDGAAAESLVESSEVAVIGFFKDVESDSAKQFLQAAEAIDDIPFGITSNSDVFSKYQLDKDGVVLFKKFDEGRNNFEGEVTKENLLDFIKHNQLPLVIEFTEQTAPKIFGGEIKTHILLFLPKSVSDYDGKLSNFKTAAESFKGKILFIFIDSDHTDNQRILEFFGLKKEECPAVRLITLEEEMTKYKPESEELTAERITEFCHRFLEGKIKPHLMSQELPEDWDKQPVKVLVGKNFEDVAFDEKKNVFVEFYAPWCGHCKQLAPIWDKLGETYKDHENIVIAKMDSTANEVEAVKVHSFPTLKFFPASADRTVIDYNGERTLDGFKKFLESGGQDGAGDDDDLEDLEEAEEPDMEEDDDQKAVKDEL
T4 sequence (P65502 whole entry): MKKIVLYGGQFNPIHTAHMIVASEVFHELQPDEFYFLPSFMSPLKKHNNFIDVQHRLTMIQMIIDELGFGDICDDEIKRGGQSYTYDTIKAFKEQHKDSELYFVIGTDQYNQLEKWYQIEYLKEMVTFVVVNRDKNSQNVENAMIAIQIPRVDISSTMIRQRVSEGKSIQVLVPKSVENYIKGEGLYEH
Beta-lactamase (Salmonella choleraesuis (strain SC-B67), UniProt Q5J463), sequence (Q5J463 whole entry): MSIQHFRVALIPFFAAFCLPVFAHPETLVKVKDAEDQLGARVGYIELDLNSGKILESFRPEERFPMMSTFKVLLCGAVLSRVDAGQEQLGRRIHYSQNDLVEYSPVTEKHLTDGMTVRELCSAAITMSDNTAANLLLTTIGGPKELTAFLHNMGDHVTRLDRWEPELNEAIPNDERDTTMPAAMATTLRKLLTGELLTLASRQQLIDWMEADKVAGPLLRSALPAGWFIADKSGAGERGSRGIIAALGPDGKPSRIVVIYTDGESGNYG
Long-chain-fatty-acid--AMP ligase FadD28, sequence (P9WQ59 whole entry): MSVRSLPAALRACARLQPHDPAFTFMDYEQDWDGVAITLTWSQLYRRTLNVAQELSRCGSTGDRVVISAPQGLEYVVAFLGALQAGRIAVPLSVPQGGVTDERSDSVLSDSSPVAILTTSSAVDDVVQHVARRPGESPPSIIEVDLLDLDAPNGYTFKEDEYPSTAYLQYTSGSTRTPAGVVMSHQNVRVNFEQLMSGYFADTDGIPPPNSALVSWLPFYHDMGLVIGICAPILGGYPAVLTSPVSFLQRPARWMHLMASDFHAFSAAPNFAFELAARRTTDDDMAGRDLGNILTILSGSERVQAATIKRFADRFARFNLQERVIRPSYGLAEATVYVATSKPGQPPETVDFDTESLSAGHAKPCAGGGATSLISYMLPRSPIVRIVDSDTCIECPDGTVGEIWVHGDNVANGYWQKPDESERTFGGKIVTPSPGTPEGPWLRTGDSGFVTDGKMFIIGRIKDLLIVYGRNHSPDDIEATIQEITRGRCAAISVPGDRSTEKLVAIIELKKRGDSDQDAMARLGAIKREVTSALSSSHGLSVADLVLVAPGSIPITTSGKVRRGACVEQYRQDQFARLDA
Steroidogenic factor 1, sequence (Q13285 whole entry): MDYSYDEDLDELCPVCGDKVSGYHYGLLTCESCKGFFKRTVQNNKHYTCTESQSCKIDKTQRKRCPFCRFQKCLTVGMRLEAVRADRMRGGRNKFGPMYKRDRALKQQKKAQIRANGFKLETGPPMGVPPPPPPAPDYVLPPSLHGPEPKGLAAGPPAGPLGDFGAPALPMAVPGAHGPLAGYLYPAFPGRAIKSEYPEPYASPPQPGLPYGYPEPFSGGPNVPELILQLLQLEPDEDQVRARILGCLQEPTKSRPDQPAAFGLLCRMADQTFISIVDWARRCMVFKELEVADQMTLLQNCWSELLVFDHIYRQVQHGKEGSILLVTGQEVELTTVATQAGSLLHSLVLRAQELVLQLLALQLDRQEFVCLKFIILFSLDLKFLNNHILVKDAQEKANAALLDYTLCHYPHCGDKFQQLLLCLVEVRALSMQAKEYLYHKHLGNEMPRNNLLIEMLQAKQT

CN(C)c1cc(-c2ccc(Cl)c(Cl)c2)oc(=O)c1Cl
IC50 [1]: 35.4 µM (inactive) | IC50 [2]: 8.63 µM (active)

O=S(=O)(Nc1cccc(-c2ccc(N3CCCCCC3)nn2)c1)c1ccccc1F
CC50 [3]: > 50 µM (active) | IC50 [4]: > 67.6 µM (inactive) | IC50 [5]: 6.9 µM (active) | IC50 [6]: 7.03 µM (active) | IC50 [7]: > 67.6 µM (inactive)

CCOC(=O)C1=C(C)c2ccccc2N(C(=O)OC)C1(C)C(=O)OCC (stereo unspecified)
IC50 [8]: 15.6 µM (active) | IC50 [9]: 34.6 µM (active)

Cc1c(C(=O)N2CCCC2)oc2ccc(Br)cc12
AC50 [10]: 23.5 µM (active) | AC50 [11]: 35.1 µM (active)

Sc1nnc(-c2ccccc2)n1Cc1ccccc1
IC50 [12]: > 59.6 µM (inactive) | IC50 [13]: > 59.6 µM (inactive) | IC50 [14]: > 59.6 µM (inactive)

Cc1ccc(NC(=O)c2ccc(Cl)cc2Cl)cc1O
IC50 [15]: > 67.6 µM (inactive) | AC50 [16]: 26 µM (active) | IC50 [17]: > 67.6 µM (inactive)

Nc1nc(-c2ccccc2)c(N=Nc2cccc3ccccc23)s1
IC50 [18]: 9.98 µM (active) | EC50 [19]: > 150 µM (not active) | EC50 [20]: 4.14 µM (active) | EC50 [21]: > 150 µM (not active) | IC50 [22]: 31.3 µM (inactive)

CC(C)N(C)C(=O)CCc1nnc(CCc2c[nH]c3ccccc23)o1
AC50 [23]: 0.009 µM (active) | AC50 [24]: < 0.009 µM (active)

CCOc1cc(CN2CCN(C(=O)c3ccco3)CC2)ccc1OC
EC50 [25]: 5.88 µM (active) | EC50 [26]: 92.5 µM (inactive)

Cc1ccc(NC(S)=NNc2ccc(C(=O)O)cc2[N+](=O)[O-])cc1C
AC50 [27]: > 100 µM (inactive)

COc1ccc(-c2cc3nc(C)cc(N4CCN(C(=O)c5ccoc5)CC4)n3n2)cc1
IC50 [28]: 27.3 µM (active) | EC50 [29]: 6.12 µM (active)

COc1cccc(-c2cnc3c(NC(C)=O)cc(-c4ccc(S(C)(=O)=O)cc4)cn23)c1
IC50 [30]: 23.5 µM (inactive) | IC50 [31]: 4.62 µM (active) | IC50 [32]: 9.25 µM (active)

CCN1CCN(Cc2nc3ncc([N+](=O)[O-])cc3c(=O)n2-c2ccccc2)CC1
IC50 [33]: 0.832 µM (active)

CC(C)N1C[C@@H](CN(C)Cc2ccc(Cl)cc2)Oc2c(NC(=O)c3ccnnc3)cccc2C1=O
AC50 [34]: 0.198 µM (active)

O=C(N/N=C\c1cccc([N+](=O)[O-])c1O)C1COc2ccccc2O1 (stereo unspecified)
AC50 [35]: 90.6 µM (active) | IC50 [36]: 31.4 µM (active)

Source: ChEMBL document CHEMBL1201862, “PubChem BioAssay data set” (2004)
